Consider 16 compounds from patent US8754054B2, “Antibacterial compounds, methods of making them, and uses thereof” (Albany Molecular Research, Inc., priority 2010, dated 2014).

Values after ≈ are worked out from the molar mass of the structure shown. Structures can show the parent of a compound that is named as a salt.

For orientation: MIC means the least concentration at which growth counts as inhibited.

In one assay the test system is MRSA 43300. Briefly: Antibacterial activity, NCCLS dilution method (Table 9). As to conditions: Staphylococcus aureus, MRSA, MRSA 43300; dilution method; labels marked a tested as a mixture of diastereomers; read-out: MRSA 43300 MIC. The class given is cell-based, S. aureus. An excerpt:
NCCLS standards for antimicrobial susceptibility testing using the dilution method were followed. See: Performance Standards for Antimicrobial Susceptibility Testing; Fourteenth Informational Supplement. NCCLS Document M100-S14 (ISBN 1-56238-516-X), 2004. NCCLS, 940 West Valley Road, Suite 1400, Wayne, Pa. 19087-1898 USA, 2004; Methods for Dilution Antimicrobial Susceptibility Tests for Bacteria that Grow Aerobically; Approved Standard—Sixth Edition. NCCLS document M7-A6 (IBSBN 1-56238-486-4), NCCLS, 940 West Valley Road, Suite 1400, Wayne, Pa. 19087-1898 USA, 2003, which are hereby incorporated by reference in their entirety.
Take `CO[C@@H]1[C@@H](O)[C@@H](OC)[C@@H](NC2=CC(=O)c3c(cc4c(c3O)C(=O)[C@]3(OC)[C@H](O)Cc5cc(C)c(C(=O)O)c(O)c5[C@]3(O)C4=O)C2=O)O[C@H]1C` [Example 13, (6R,6aS,14aR)-1,6,8,14a-Tetrahydroxy-11-((2S,3R,4R,5R,6S)-4-hydroxy-3,5-dimethoxy-6-methyltetrahydro-2H-pyran-2-ylamino)-6a-methoxy-3-methyl-7,9,12,14-tetraoxo-5,6,6a,7,9,12,14,14a-octahydrobenzo[a]tetracene-2-carboxylic acid]: the MIC turned out to be 32 mg/L (≈ 46.8 µM).

On to `COC(=O)c1c(C)cc2c(c1OCc1ccccc1)[C@]1(O)C(=O)c3cc4c(c(O)c3C(=O)[C@]1(OC)[C@H](O)C2)C(=O)C=C(N[C@H]1O[C@@H](C)[C@H](OC)[C@@H](O)[C@H]1OC)C4=O` [Example 7, (6R,6aS,14aR)-Methyl 1-(benzyloxy)-6,8,14a-trihydroxy-11-((2S,3R,4R,5R,6S)-4-hydroxy-3,5-dimethoxy-6-methyltetrahydro-2H-pyran-2-ylamino)-6a-methoxy-3-methyl-7,9,12,14-tetraoxo-5,6,6a,7,9,12,14,14a-octahydrobenzo[a]tetracene-2-carboxylate], for which the MIC is 0.12 mg/L (≈ 0.152 µM).

As for `CO[C@@H]1[C@@H](O)[C@@H](OC)C(NC2=CC(=O)c3c(cc4c(c3O)C(=O)[C@]3(OC)[C@H](O)Cc5cc(C)c(C(=O)NC6CCCCC6)c(O)c5[C@]3(O)C4=O)C2=O)O[C@H]1C` (mixture of isomers) [Example 18, (6R,6aS,14aR)—N-Cyclohexyl-1,6,8,14a-tetrahydroxy-11-((3R,4R,5R,6S)-4-hydroxy-3,5-dimethoxy-6-methyltetrahydro-2H-pyran-2-ylamino)-6a-methoxy-3-methyl-7,9,12,14-tetraoxo-5,6,6a,7,9,12,14,14a-octahydrobenzo[a]tetracene-2-carboxamide], the MIC was 2 mg/L (≈ 2.62 µM).

Take `C/N=C1\C=C(N[C@H]2O[C@@H](C)[C@H](OC)[C@@H](O)[C@H]2OC)C(=O)c2cc3c(c(O)c21)C(=O)[C@]1(OC)[C@H](O)Cc2cc(C)c(C(=O)OC)c(O)c2[C@]1(O)C3=O` [Example 44, (6R,6aS,14aR,E)-Methyl 1,6,8,14a-tetrahydroxy-11-((2S,3R,4R,5R,6S)-4-hydroxy-3,5-dimethoxy-6-methyltetrahydro-2H-pyran-2-ylamino)-6a-methoxy-3-methyl-9-(methylimino)-7,12,14-trioxo-5,6,6a,7,9,12,14,14a-octahydrobenzo[a]tetracene-2-carboxylate]: the MIC lay in the range of 1 to 2 mg/L (≈ 1.41 to 2.81 µM).

With `CCOC(=O)c1c(C)cc2c(c1O)[C@]1(O)C(=O)c3cc4c(c(O)c3C(=O)[C@]1(OC)[C@H](O)C2)C(=O)C=C(N[C@H]1O[C@@H](C)[C@H](OC)[C@@H](O)[C@H]1OC)C4=O` [Example 34, (6R,6aS,14aR)-Ethyl 1,6,8,14a-tetrahydroxy-11-((2S,3R,4R,5R,6S)-4-hydroxy-3,5-dimethoxy-6-methyltetrahydro-2H-pyran-2-ylamino)-6a-methoxy-3-methyl-7,9,12,14-tetraoxo-5,6,6a,7,9,12,14,14a-octahydrobenzo[a]tetracene-2-carboxylate], the MIC is 0.008 to 0.016 mg/L (≈ 0.0112 to 0.0225 µM).

With `COc1ccc(CNC(=O)c2c(C)cc3c(c2O)[C@]2(O)C(=O)c4cc5c(c(O)c4C(=O)[C@]2(OC)[C@H](O)C3)C(=O)C=C(N[C@H]2O[C@@H](C)[C@H](OC)[C@@H](O)[C@H]2OC)C5=O)cc1` [Example 28, (6R,6aS,14aR)-1,6,8,14a-Tetrahydroxy-11-((3R,4R,5R,6S)-4-hydroxy-3,5-dimethoxy-6-methyltetrahydro-2H-pyran-2-ylamino)-6a-methoxy-N-(4-methoxybenzyl)-3-methyl-7,9-12-14-tetraoxo-5,6,6a,7,9,12,14,14a-octahydrobenzo[a]tetracene-2-carboxamide], the MIC was found to be 0.5 mg/L (≈ 0.623 µM).

In the case of `COC(=O)c1c(C)cc2c(c1OCc1cccnc1)[C@]1(O)C(=O)c3cc4c(c(O)c3C(=O)[C@]1(OC)[C@H](O)C2)C(=O)C=C(N[C@H]1O[C@@H](C)[C@H](OC)[C@@H](O)[C@H]1OC)C4=O.Cl` [Example 11, (6R,6aS,14aR)-Methyl 6,8,14a-trihydroxy-11-((2S,3R,4R,5R,6S)-4-hydroxy-3,5-dimethoxy-6-methyltetrahydro-2H-pyran-2-ylamino)-6a-methoxy-3-methyl-7,9,12,14-tetraoxo-1-(pyridin-3-ylmethoxy)-5,6,6a,7,9,12,14,14a-octahydrobenzo[a]tetracene-2-carboxylate hydrochloride], the MIC is 0.12 to 0.25 mg/L.

Take `COC(=O)c1c(C)cc2c(c1O)[C@]1(O)C(=O)c3cc4c(c(O)c3C(=O)[C@]1(OC)[C@H](O)C2)C(=O)C=C(N[C@H]1O[C@@H](C)[C@H](OC)[C@@H](O[C@@H]2O[C@H](CO)[C@@H](O)[C@H](O)[C@H]2O)[C@H]1OC)C4=O` [Example 54, (6R,6aS,14aR)-Methyl 11-((2S,3R,4R,5S,6S)-3,5-dimethoxy-6-methyl-4-((2S,3R,4S,5S,6R)-3,4,5-trihydroxy-6-(hydroxymethyl)tetrahydro-2H-pyran-2-yloxy)tetrahydro-2H-pyran-2-ylamino)-1,6,8,14a-tetrahydroxy-6a-methoxy-3-methyl-7,9,12,14-tetraoxo-5,6,6a,7,9,12,14,14a-octahydrobenzo[a]tetracene-2-carboxylate]: the MIC is 2 mg/L (≈ 2.33 µM).

As to `COCC/N=C1\C=C(N[C@H]2O[C@@H](C)[C@H](OC)[C@@H](O)[C@H]2OC)C(=O)c2cc3c(c(O)c21)C(=O)[C@]1(OC)[C@H](O)Cc2cc(C)c(C(=O)OC)c(O)c2[C@]1(O)C3=O` [Example 46, (6R,6aS,14aR,E)-methyl 1,6,8,14a-tetrahydroxy-11-((2S,3R,4R,5R,6S)-4-hydroxy-3,5-dimethoxy-6-methyltetrahydro-2H-pyran-2-ylamino)-6a-methoxy-9-(2-methoxyethylimino)-3-methyl-7,12,14-trioxo-5,6,6a,7,9,12,14,14a-octahydrobenzo[a]tetracene-2-carboxylate], the MIC was 1 mg/L (≈ 1.32 µM).

`COC(=O)c1c(C)c(Br)c2c(c1O)[C@]1(O)C(=O)c3cc4c(c(O)c3C(=O)[C@]1(OC)[C@H](O)C2)C(=O)C(Br)=C(N[C@H]1O[C@@H](C)[C@H](OC)[C@@H](O)[C@H]1OC)C4=O` [Example 39, (6R,6aS,14aR)-Methyl 4,10-dibromo-1,6,8,14a-tetrahydroxy-11-((2S,3R,4R,5R,6S)-4-hydroxy-3,5-dimethoxy-6-methyltetrahydro-2H-pyran-2-ylamino)-6a-methoxy-3-methyl-7,9,12,14-tetraoxo-5,6,6a,7,9,12,14,14a-octahydrobenzo[a]tetracene-2-carboxylate]: the minimal inhibitory concentration (MIC) came out at 2 mg/L (≈ 2.34 µM).

In the case of `COC(=O)c1c(C)cc2c(c1O)[C@]1(O)C(=O)c3cc4c(c(O)c3C(=O)[C@]1(OC)[C@H](O)C2)C(=O)C=C(N[C@H]1O[C@@H](C)[C@H](OC)[C@@H](O)[C@H]1OC)C4(O)c1ccc(F)cc1` (single isomer, unassigned) [Example 58], the MIC was 8 to 16 mg/L (≈ 10.1 to 20.2 µM).

For `CNC(=O)c1c(C)cc2c(c1O)[C@]1(O)C(=O)c3cc4c(c(O)c3C(=O)[C@]1(OC)[C@H](O)C2)C(=O)C=C(NC1O[C@@H](C)[C@H](OC)[C@@H](O)[C@H]1OC)C4=O` (mixture of isomers) [Example 19, (6R,6aS,14aR)-1,6,8,14a-Tetrahydroxy-11-((3R,4R,5R,6S)-4-hydroxy-3,5-dimethoxy-6-methyltetrahydro-2H-pyran-2-ylamino)-6a-methoxy-N,3-dimethyl-7,9,12,14-tetraoxo-5,6,6a,7,9,12,14,14a-octahydrobenzo[a]tetracene-2-carboxamide], the MIC stood at 2 mg/L (≈ 2.87 µM).

As to `CO[C@@H]1[C@@H](O)[C@@H](OC)C(NC2=CC(=O)c3c(cc4c(c3O)C(=O)[C@]3(OC)[C@H](O)Cc5cc(C)c(C(=O)Nc6ccc(-c7ccccc7)cc6)c(O)c5[C@]3(O)C4=O)C2=O)O[C@H]1C` (mixture of isomers) [Example 23, (6R,6aS,14aR)—N-(Biphenyl-4-yl)-1,6,8,14a-tetrahydroxy-11-((3R,4R,5R,6S)-4-hydroxy-3,5-dimethoxy-6-methyltetrahydro-2H-pyran-2-ylamino)-6a-methoxy-3-methyl-7,9,12,14-tetraoxo-5,6,6a,7,9,12,14,14a-octahydrobenzo[a]tetracene-2-carboxamide], the MIC worked out at 4 mg/L (≈ 4.79 µM).

Regarding `CO[C@@H]1[C@@H](O)[C@@H](OC)[C@@H](NC2=CC(=O)c3c(cc4c(c3O)C(=O)[C@]3(OC)[C@H](O)Cc5cc(C)c(C(=O)OCC(C)C)c(O)c5[C@]3(O)C4=O)C2=O)O[C@H]1C` [Example 36], the MIC is 0.12 mg/L (≈ 0.162 µM).

`COC(=O)COc1c(C(=O)OC)c(C)cc2c1[C@]1(O)C(=O)c3cc4c(c(O)c3C(=O)[C@]1(OC)[C@H](O)C2)C(=O)C=C(N[C@H]1O[C@@H](C)[C@H](OC)[C@@H](O)[C@H]1OC)C4=O` [Example 6, (6R,6aS,14aR)-Methyl 6,8,14a-trihydroxy-11-((2S,3R,4R,5R,6S)-4-hydroxy-3,5-dimethoxy-6-methyltetrahydro-2H-pyran-2-ylamino)-6a-methoxy-1-(2-methoxy-2-oxoethoxy)-3-methyl-7,9,12,14-tetraoxo-5,6,6a,7,9,12,14,14a-octahydrobenzo[a]tetracene-2-carboxylate]: the MIC was determined as 0.12 mg/L (≈ 0.156 µM).

Staying with this assay, now noted: Staphylococcus aureus, MRSA, read-out: MRSA 43300 MIC.
Regarding `CO[C@@H]1[C@@H](O)[C@@H](OC)C(NC2=CC(=O)c3c(cc4c(c3O)C(=O)[C@]3(OC)[C@H](O)Cc5cc(C)c(C(=O)NCc6cccnc6)c(O)c5[C@]3(O)C4=O)C2=O)O[C@H]1C` (mixture of isomers) [Example 17, (6R,6aS,14aR)-1,6,8,14a-Tetrahydroxy-11-((3R,4R,5R,6S)-4-hydroxy-3,5-dimethoxy-6-methyltetrahydro-2H-pyran-2-ylamino)-6a-methoxy-3-methyl-7,9,12,14-tetraoxo-N-(pyridin-3-ylmethyl)-5,6,6a,7,9,12,14,14a-octahydrobenzo[a]tetracene-2-carboxamide hydrochloride], the MIC was 32 mg/L.
